Reference: publication PMC9481151, “Discovery of new symmetrical and asymmetrical nitrile-containing 1,4-dihydropyridine derivatives as dual kinases and P-glycoprotein inhibitors: synthesis, in vitro assays, and in silico studies” (Journal of Enzyme Inhibition and Medicinal Chemistry, 2022)
Several values for one entry are separate records, joined by “and”; a condition that tells them apart may be missing. Equal entries are not always repeated.

Key:
U251 = assay: NCI single dose (10 µM) SRB screen; type: cell-based, human; details: CNS cancer, 48 h
OVCAR-5 = assay: NCI single dose (10 µM) SRB screen; type: cell-based, human; details: ovarian cancer, 48 h
SF-295 = assay: NCI single dose (10 µM) SRB screen; type: cell-based, human; details: CNS cancer, 48 h
CAKI-1 = assay: NCI single dose (10 µM) SRB screen; type: cell-based, human; details: renal cancer, 48 h
Pseudomonas aeruginosa = assay: Agar well diffusion method
Candida albicans = assay: Agar well diffusion method
BT-549 = assay: NCI single dose (10 µM) SRB screen; type: cell-based, human; details: breast cancer, 48 h
HL-60(TB) = assay: NCI single dose (10 µM) SRB screen; type: cell-based, human; details: leukaemia, 48 h
NCI-H522 = assay: NCI single dose (10 µM) SRB screen; type: cell-based, human; details: non-small cell lung cancer, 48 h
K-562 = assay: NCI single dose (10 µM) SRB screen; type: cell-based, human; details: leukaemia, 48 h
HOP-92 = assay: NCI single dose (10 µM) SRB screen; type: cell-based, human; details: non-small cell lung cancer, 48 h
SNB-75 = assay: NCI single dose (10 µM) SRB screen; type: cell-based, human; details: CNS cancer, 48 h
UACC-62 = assay: NCI single dose (10 µM) SRB screen; type: cell-based, human; details: melanoma, 48 h
Aspergillus flavus = assay: Agar well diffusion method
Bacillus subtilis = assay: Agar well diffusion method
UACC-257 = assay: NCI single dose (10 µM) SRB screen; type: cell-based, human; details: melanoma, 48 h
MALME-3M = assay: NCI single dose (10 µM) SRB screen; type: cell-based, human; details: melanoma, 48 h
COLO 205 = assay: NCI single dose (10 µM) SRB screen; type: cell-based, human; details: colon cancer, 48 h
OVCAR-4 = assay: NCI single dose (10 µM) SRB screen; type: cell-based, human; details: ovarian cancer, 48 h
ACHN = assay: NCI single dose (10 µM) SRB screen; type: cell-based, human; details: renal cancer, 48 h
SR = assay: NCI single dose (10 µM) SRB screen; type: cell-based, human; details: leukaemia, 48 h
SK-MEL-2 = assay: NCI single dose (10 µM) SRB screen; type: cell-based, human; details: melanoma, 48 h
Escherichia coli = assay: Agar well diffusion method
SNB-19 = assay: NCI single dose (10 µM) SRB screen; type: cell-based, human; details: CNS cancer, 48 h
NCI-H23 = assay: NCI single dose (10 µM) SRB screen; type: cell-based, human; details: non-small cell lung cancer, 48 h
HCT-116 = assay: NCI single dose (10 µM) SRB screen; type: cell-based, human; details: colon cancer, 48 h
SK-MEL-28 = assay: NCI single dose (10 µM) SRB screen; type: cell-based, human; details: melanoma, 48 h
RXF 393 = assay: NCI single dose (10 µM) SRB screen; type: cell-based, human; details: renal cancer, 48 h
HCT-15 = assay: NCI single dose (10 µM) SRB screen; type: cell-based, human; details: colon cancer, 48 h
MCF7 = assay: NCI single dose (10 µM) SRB screen; type: cell-based, human; details: breast cancer, 48 h
HS578T = assay: NCI single dose (10 µM) SRB screen; type: cell-based, human; details: breast cancer, 48 h
786-0 = assay: NCI single dose (10 µM) SRB screen; type: cell-based, human; details: renal cancer, 48 h
HCC-2998 = assay: NCI single dose (10 µM) SRB screen; type: cell-based, human; details: colon cancer, 48 h
SN12C = assay: NCI single dose (10 µM) SRB screen; type: cell-based, human; details: renal cancer, 48 h
IGROV1 = assay: NCI single dose (10 µM) SRB screen; type: cell-based, human; details: ovarian cancer, 48 h
OVCAR-3 = assay: NCI single dose (10 µM) SRB screen; type: cell-based, human; details: ovarian cancer, 48 h
MDA-MB-468 = assay: NCI single dose (10 µM) SRB screen; type: cell-based, human; details: breast cancer, 48 h
NCI-H226 = assay: NCI single dose (10 µM) SRB screen; type: cell-based, human; details: non-small cell lung cancer, 48 h
PC-3 = assay: NCI single dose (10 µM) SRB screen; type: cell-based, human; details: prostate cancer, 48 h
KM12 = assay: NCI single dose (10 µM) SRB screen; type: cell-based, human; details: colon cancer, 48 h
RPMI-8226 = assay: NCI single dose (10 µM) SRB screen; type: cell-based, human; details: leukaemia, 48 h
SK-OV-3 = assay: NCI single dose (10 µM) SRB screen; type: cell-based, human; details: ovarian cancer, 48 h
M14 = assay: NCI single dose (10 µM) SRB screen; type: cell-based, human; details: melanoma, 48 h
NCI-H460 = assay: NCI single dose (10 µM) SRB screen; type: cell-based, human; details: non-small cell lung cancer, 48 h
NCI-H322M = assay: NCI single dose (10 µM) SRB screen; type: cell-based; details: non-small cell lung cancer, 48 h
TK-10 = assay: NCI single dose (10 µM) SRB screen; type: cell-based, human; details: renal cancer, 48 h
UO-31 = assay: NCI single dose (10 µM) SRB screen; type: cell-based, human; details: renal cancer, 48 h
Staphylococcus aureus = assay: Agar well diffusion method
NCI 60 cancer cell lines = assay: NCI single dose (10 µM) SRB screen, mean over panel; type: cell-based, human; details: mean over 60 cell lines, 48 h
CCRF-CEM = assay: NCI single dose (10 µM) SRB screen; type: cell-based, human; details: leukaemia, 48 h
T-47D = assay: NCI single dose (10 µM) SRB screen; type: cell-based, human; details: breast cancer, 48 h

COCCOC(=O)C1=C(C)NC(C)=C(C(=O)OCCOC)C1c1cccc(C#N)c1 [Compound 1f, Di(2-methoxyethyl) 4-(3-cyanophenyl)-2,6-dimethyl-1,4-dihydropyridine-3,5-dicarboxylate]
73.9%: % activity index, P. aeruginosa (Pseudomonas aeruginosa; relative to ciprofloxacin)
50%: % activity index, E. coli (Escherichia coli; relative to ciprofloxacin)
14%: GI% SNB-75 (SNB-75)
13 mm: zone of inhibition at 1000 µg/mL (Escherichia coli; Escherichia coli, 24 h, read-out: Diameter of inhibition zone, E. coli)
69.6%: % activity index, B. subtilis (Bacillus subtilis; relative to ciprofloxacin)
12%: GI% BT-549 (BT-549)
19 mm: zone of inhibition at 1000 µg/mL (Aspergillus flavus; Aspergillus flavus, 24 h, read-out: Diameter of inhibition zone, A. flavus) | zone of inhibition at 1000 µg/mL (Staphylococcus aureus; Staphylococcus aureus, 24 h, read-out: Diameter of inhibition zone, S. aureus)
76%: % activity index, A. flavus (Aspergillus flavus; relative to clotrimazole)
13%: GI% MDA-MB-468 (MDA-MB-468)
18 mm: zone of inhibition at 1000 µg/mL (Candida albicans; Candida albicans, 24 h, read-out: Diameter of inhibition zone, C. albicans)
66.7%: % activity index, C. albicans (Candida albicans; relative to clotrimazole)
79% and 79.2%: % activity index, S. aureus (Staphylococcus aureus; relative to ciprofloxacin)
17 mm: zone of inhibition at 1000 µg/mL (Pseudomonas aeruginosa; Pseudomonas aeruginosa, 24 h, read-out: Diameter of inhibition zone, P. aeruginosa)
10%: GI% HL-60(TB) (HL-60(TB))
16 mm: zone of inhibition at 1000 µg/mL (Bacillus subtilis; Bacillus subtilis, 24 h, read-out: Diameter of inhibition zone, B. subtilis)
−1%: Mean GI% (NCI 60 cancer cell lines)
– (Only GI% ≥ 10 are shown): GI% U251 (U251) | GI% OVCAR-5 (OVCAR-5) | GI% SF-295 (SF-295) | GI% CAKI-1 (CAKI-1) | GI% NCI-H522 (NCI-H522) | GI% K-562 (K-562) | GI% HOP-92 (HOP-92) | GI% UACC-62 (UACC-62) | GI% UACC-257 (UACC-257) | GI% MALME-3M (MALME-3M) | GI% COLO 205 (COLO 205) | GI% OVCAR-4 (OVCAR-4) | GI% ACHN (ACHN) | GI% SR (SR) | GI% SK-MEL-2 (SK-MEL-2) | GI% SNB-19 (SNB-19) | GI% NCI-H23 (NCI-H23) | GI% HCT-116 (HCT-116) | GI% SK-MEL-28 (SK-MEL-28) | GI% RXF 393 (RXF 393) | GI% HCT-15 (HCT-15) | GI% MCF7 (MCF7) | GI% HS578T (HS578T) | GI% 786-0 (786-0) | GI% HCC-2998 (HCC-2998) | GI% SN12C (SN12C) | GI% IGROV1 (IGROV1) | GI% OVCAR-3 (OVCAR-3) | GI% NCI-H226 (NCI-H226) | GI% PC-3 (PC-3) | GI% KM12 (KM12) | GI% RPMI-8226 (RPMI-8226) | GI% SK-OV-3 (SK-OV-3) | GI% M14 (M14) | GI% NCI-H460 (NCI-H460) | GI% NCI-H322M (NCI-H322M) | GI% TK-10 (TK-10) | GI% UO-31 (UO-31) | GI% CCRF-CEM (CCRF-CEM) | GI% T-47D (T-47D)
